{"source": "ChEMBL document CHEMBL1201862", "about": "“PubChem BioAssay data set” (2004)", "key": {"[1]": {"test": "inhibitors of non-replicating M. tuberculosis, dose response, luciferase, dry powder (AID 651619)", "format": "functional", "conditions": "Mycobacterium tuberculosis"}, "[2]": {"test": "growth inhibition of replicating M. tuberculosis, dose response, counter-screen, dry powder, IC90 (AID 651617)", "format": "functional", "conditions": "Mycobacterium tuberculosis"}, "[3]": {"test": "inhibitors of non-replicating M. tuberculosis, dose response, luciferase, dry powder (AID 651620)", "format": "functional", "conditions": "Mycobacterium tuberculosis"}, "cells [4]": {"test": "cells"}, "[5]": {"target": "Oxysterols receptor LXR-beta (Homo sapiens, UniProt P55055)", "sequence (P55055 whole entry)": "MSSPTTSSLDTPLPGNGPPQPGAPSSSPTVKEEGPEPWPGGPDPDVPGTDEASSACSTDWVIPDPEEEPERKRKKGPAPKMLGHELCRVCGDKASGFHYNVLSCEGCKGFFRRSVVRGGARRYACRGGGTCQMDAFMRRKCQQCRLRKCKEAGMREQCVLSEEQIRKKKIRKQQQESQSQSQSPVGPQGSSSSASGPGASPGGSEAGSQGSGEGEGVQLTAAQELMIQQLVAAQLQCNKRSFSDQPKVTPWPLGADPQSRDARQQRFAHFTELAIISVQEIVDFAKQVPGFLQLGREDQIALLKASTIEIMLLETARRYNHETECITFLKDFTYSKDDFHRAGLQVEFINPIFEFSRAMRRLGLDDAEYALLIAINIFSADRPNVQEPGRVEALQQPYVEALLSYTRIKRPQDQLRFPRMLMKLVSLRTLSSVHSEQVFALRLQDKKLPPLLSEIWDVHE", "format": "functional, cell-based"}, "Phospholipase D1": {"target": "Phospholipase D1 (Homo sapiens, UniProt Q13393)", "sequence (Q13393 whole entry)": "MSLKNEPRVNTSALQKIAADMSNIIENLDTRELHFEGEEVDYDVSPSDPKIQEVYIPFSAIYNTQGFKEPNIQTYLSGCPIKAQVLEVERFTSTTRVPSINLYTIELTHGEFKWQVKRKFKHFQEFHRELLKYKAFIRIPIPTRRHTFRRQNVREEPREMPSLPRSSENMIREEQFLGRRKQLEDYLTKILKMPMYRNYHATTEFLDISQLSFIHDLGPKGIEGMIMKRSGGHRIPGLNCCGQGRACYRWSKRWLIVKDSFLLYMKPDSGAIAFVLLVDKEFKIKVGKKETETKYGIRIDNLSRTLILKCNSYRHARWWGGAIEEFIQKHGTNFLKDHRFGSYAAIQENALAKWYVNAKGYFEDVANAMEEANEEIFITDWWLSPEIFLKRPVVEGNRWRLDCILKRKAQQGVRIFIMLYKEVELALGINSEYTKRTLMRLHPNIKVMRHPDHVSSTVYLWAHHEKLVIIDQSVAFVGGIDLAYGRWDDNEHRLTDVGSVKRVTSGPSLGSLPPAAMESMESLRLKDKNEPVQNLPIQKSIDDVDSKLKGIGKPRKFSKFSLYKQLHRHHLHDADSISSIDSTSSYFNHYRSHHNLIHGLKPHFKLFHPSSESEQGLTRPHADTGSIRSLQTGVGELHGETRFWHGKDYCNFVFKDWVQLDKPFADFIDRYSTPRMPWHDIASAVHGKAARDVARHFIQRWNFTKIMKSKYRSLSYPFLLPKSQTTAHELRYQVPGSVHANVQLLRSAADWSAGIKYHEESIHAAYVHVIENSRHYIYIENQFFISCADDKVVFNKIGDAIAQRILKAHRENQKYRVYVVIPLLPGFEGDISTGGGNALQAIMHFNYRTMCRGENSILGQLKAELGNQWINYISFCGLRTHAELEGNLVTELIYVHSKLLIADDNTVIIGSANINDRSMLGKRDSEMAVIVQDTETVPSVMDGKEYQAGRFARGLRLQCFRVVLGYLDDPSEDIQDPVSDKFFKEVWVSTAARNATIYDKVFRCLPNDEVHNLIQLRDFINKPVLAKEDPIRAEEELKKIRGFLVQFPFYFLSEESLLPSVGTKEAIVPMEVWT", "test": "PLD1 Cellular Concentration Response Study.", "format": "functional"}, "Phospholipase D2": {"target": "Phospholipase D2 (Homo sapiens, UniProt O14939)", "sequence (O14939 whole entry)": "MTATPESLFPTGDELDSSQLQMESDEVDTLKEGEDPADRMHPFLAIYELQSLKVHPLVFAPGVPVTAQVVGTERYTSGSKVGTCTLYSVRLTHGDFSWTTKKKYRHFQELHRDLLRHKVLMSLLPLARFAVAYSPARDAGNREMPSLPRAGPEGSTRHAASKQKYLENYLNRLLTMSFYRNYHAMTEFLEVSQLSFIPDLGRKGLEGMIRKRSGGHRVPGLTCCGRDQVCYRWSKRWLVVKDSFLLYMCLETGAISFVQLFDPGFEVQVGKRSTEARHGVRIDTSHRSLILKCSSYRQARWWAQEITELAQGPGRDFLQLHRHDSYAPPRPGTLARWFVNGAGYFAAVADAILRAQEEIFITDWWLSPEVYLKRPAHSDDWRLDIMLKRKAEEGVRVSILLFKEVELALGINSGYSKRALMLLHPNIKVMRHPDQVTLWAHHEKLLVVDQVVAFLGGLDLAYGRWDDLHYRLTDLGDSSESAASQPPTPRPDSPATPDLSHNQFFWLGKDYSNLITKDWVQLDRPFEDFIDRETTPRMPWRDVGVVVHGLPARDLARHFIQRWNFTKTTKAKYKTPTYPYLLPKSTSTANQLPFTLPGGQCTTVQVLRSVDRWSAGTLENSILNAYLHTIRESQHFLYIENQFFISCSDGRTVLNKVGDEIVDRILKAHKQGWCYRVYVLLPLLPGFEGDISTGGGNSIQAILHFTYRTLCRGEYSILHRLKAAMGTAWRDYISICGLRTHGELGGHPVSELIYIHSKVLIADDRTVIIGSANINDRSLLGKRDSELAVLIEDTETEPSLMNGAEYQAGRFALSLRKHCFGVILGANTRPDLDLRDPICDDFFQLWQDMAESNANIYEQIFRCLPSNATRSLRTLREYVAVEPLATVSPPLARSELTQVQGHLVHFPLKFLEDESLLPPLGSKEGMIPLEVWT", "test": "PLD2 Cellular Concentration Response Study.", "format": "functional"}, "[6]": {"target": "RNA-editing ligase 1, mitochondrial (Trypanosoma brucei brucei, UniProt P86926)", "sequence (P86926 whole entry)": "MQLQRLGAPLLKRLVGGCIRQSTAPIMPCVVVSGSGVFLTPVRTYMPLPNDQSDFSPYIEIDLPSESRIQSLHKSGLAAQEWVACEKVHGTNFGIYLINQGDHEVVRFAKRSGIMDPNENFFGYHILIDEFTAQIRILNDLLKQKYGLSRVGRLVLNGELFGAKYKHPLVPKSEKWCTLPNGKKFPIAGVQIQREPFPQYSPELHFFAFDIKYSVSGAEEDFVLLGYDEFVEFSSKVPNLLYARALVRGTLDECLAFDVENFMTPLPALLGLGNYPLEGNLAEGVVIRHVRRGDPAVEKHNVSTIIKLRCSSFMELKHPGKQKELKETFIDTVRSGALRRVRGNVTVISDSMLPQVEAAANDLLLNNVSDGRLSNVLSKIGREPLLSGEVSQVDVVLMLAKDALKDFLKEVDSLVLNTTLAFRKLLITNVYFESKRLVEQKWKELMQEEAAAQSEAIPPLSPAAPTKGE", "test": "TbREL1 ligase inhibitors, dose response, biochemical, fluorescence, Trypanosoma brucei (AID 1117295)", "format": "functional"}, "[7]": {"test": "P. falciparum Dd2 growth inhibitors, dose response, SYBR Green, dry powder samples (AID 1159566);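 note: potency for growth inhibition with lower SYBR green DNA signal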", "format": "functional, cell-based"}, "[8]": {"test": "P. falciparum 3D7-ScDHODH growth inhibitors, dose response, SYBR Green, dry powder samples (AID 1159570);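 note: parasite growth measured after 72 hours of compound exposure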", "format": "functional, cell-based"}, "[9]": {"test": "HepG2 cell cytotoxicity, dose response, cytotoxicity control, plate reader, dry powder samples (AID 1159569);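 note: inhibitor potency with signal falling toward the positive control level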", "format": "functional, cell-based"}, "[10]": {"test": "P. falciparum ATP4 D1247Y mutant growth inhibitors, dose response, NITD609-resistant line, SYBR Green, dry powder (AID 1159571);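 note: parasites synchronized at ring stage by sorbitol before testing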", "format": "functional, cell-based"}, "[11]": {"test": "P. falciparum Dd2 growth inhibitors, dose response, SYBR Green, cherry-picked samples (AID 1159567)", "format": "functional, cell-based"}, "[12]": {"test": "Late stage results for the probe development effort to identify inhibitors of Plasmodium falciparum gametocytes: Luminescence-based cell-based high throughput dose response assay to identify inhibitors of viability of late stage Plasmodium falciparum gametocytes.", "format": "functional"}, "cells [13]": {"test": "cells", "conditions": "HEK293"}, "[14]": {"test": "HepG2 cell cytotoxicity, dose response, cytotoxicity control, plate reader, dry powder, set 6 (AID 743311)", "format": "functional, cell-based"}, "[15]": {"test": "P. falciparum Dd2 growth inhibitors, dose response, SYBR Green, dry powder samples, set 9 (AID 1159568)", "format": "functional, cell-based"}, "[16]": {"test": "HepG2 cell cytotoxicity, dose response, cytotoxicity control, cherry-picked samples (AID 1159577)", "format": "functional, cell-based"}, "[17]": {"target": "T1, Corticotropin-releasing factor receptor 2/Corticotropin-releasing factor-binding protein (Homo sapiens, UniProt P24387+Q13324)", "T1 sequence (Q13324 whole entry)": "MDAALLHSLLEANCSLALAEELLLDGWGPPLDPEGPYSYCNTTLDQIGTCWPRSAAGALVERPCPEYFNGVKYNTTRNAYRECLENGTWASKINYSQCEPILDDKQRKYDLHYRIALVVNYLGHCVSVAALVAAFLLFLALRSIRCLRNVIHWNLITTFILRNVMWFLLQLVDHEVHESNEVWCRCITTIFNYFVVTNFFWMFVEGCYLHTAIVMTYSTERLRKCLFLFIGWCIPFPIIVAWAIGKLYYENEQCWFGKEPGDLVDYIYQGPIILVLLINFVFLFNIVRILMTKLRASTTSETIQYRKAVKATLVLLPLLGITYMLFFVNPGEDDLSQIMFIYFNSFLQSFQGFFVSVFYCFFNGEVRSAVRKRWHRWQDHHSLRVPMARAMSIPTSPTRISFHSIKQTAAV", "T1 sequence (P24387 whole entry)": "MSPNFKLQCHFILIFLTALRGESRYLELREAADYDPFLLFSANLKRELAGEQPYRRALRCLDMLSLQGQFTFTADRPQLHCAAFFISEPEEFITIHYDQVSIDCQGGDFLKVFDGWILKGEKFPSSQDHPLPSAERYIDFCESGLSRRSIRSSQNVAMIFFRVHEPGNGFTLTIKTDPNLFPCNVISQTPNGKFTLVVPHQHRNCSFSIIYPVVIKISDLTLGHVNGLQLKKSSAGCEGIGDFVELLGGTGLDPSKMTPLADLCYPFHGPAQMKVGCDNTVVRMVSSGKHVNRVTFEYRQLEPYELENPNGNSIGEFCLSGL", "test": "activators of CRF receptor 2 with binding protein – uHTS hits, confirmation (AID 602473)", "format": "functional", "conditions": "read-out: EC50_Mean"}, "[18]": {"target": "T1, Corticotropin-releasing factor receptor 2/Corticotropin-releasing factor-binding protein", "test": "Dose Response confirmation of uHTS hits for small molecule antagonists of the CRF-binding protein and CRF-R2 receptor complex.", "format": "functional", "conditions": "read-out: IC50_Mean"}, "[19]": {"test": "HeLa 4N DNA content increase, dose response, cell-based, IC50 (AID 1117351)", "format": "functional"}, "[20]": {"test": "HeLa 2N DNA content increase, dose response, cell-based, IC50 (AID 1117349)", "format": "functional"}}, "note": "Active and inactive are the calls of the source.", "data": [{"smiles": "[N-]=[N+]=NCCOCCNC(=O)CCCOc1ccc(CSc2nnc(-c3ccc(F)cc3)o2)nc1", "values": [{"measurement": "IC90", "setting": "[1]", "result": "16 µM (active)"}, {"measurement": "IC90", "setting": "[2]", "result": "250 µM (active)"}, {"measurement": "IC90", "setting": "[3]", "result": "16 µM (active)"}]}, {"smiles": "CCOC(=O)c1s/c(=N\\C(=O)c2cccs2)n(C)c1C", "values": [{"measurement": "EC50", "setting": "cells [4]", "result": "> 67.5 µM (inactive)"}, {"measurement": "EC50", "setting": "[5]", "result": "> 67.5 µM (inactive)"}]}, {"smiles": "O=C(NCCN1CCC2(CC1)C(=O)NCN2CC1CC1)c1ccc2ccccc2c1", "values": [{"measurement": "IC50", "setting": "Phospholipase D1", "result": "20 µM (active)"}, {"measurement": "IC50", "setting": "Phospholipase D2", "result": "2.05 µM (active)"}]}, {"smiles": "C=CCNC1=NC(c2cccc(F)c2)C(C(=O)OC)=C(C)N1Cc1cccc(C(F)(F)F)c1", "note": "(stereo not drawn)", "values": [{"measurement": "IC50", "setting": "[6]", "result": "> 96.6 µM (inactive)"}]}, {"smiles": "C/C=C/c1ccc([C@H]2[C@@H](CO)N(CC3CCCC3)[C@@H]2CNC(=O)NC(C)C)cc1", "values": [{"measurement": "AC50", "setting": "[7]", "result": "1.91 µM (active)"}, {"measurement": "AC50", "setting": "[8]", "result": "2.73 µM (active)"}, {"measurement": "AC50", "setting": "[9]", "result": "25.4 µM (active)"}, {"measurement": "AC50", "setting": "[10]", "result": "2.41 µM (active)"}, {"measurement": "AC50", "setting": "[11]", "result": "2.71 µM (active)"}]}, {"smiles": "O=C(Nc1nccs1)c1cn(-c2ccccc2)nc1-c1cccnc1", "values": [{"measurement": "IC50", "setting": "[12]", "result": "> 74.4 µM (inactive)"}]}, {"smiles": "Cc1ccc(C(C)C)c(OCCn2c(N)nc3ccccc32)c1", "values": [{"measurement": "AC50", "setting": "cells [13]", "result": "19.1 µM (active)"}, {"measurement": "AC50", "setting": "[14]", "result": "4.5 µM (active)"}]}, {"smiles": "C(=C\\c1ccc([C@H]2[C@@H]3CN(Cc4nccs4)C[C@H]2N3)cc1)/c1ccccc1", "values": [{"measurement": "AC50", "setting": "[15]", "result": "11.2 µM (active)"}]}, {"smiles": "Cc1cccc(-c2ccc([C@@H]3[C@@H]4CN(C(=O)C5CCCC5)C[C@H]3N4)cc2)c1", "values": [{"measurement": "AC50", "setting": "[16]", "result": "10.7 µM (active)"}, {"measurement": "AC50", "setting": "[11]", "result": "4.39 µM (active)"}]}, {"smiles": "Nc1nc(F)nc2c1ncn2[C@@H]1O[C@H](CO)[C@@H](O)[C@@H]1O", "note": "[FLUDARABINE]", "values": [{"measurement": "EC50", "setting": "[17]", "result": "> 53 µM (inactive)"}, {"measurement": "IC50", "setting": "[18]", "result": "> 47.1 µM (inactive)"}, {"measurement": "IC50", "setting": "[19]", "result": "> 10 µM (inactive)"}, {"measurement": "IC50", "setting": "[20]", "result": "> 10 µM (inactive)"}]}]}
